Measured values published in patent publication US12466820B2, “Amino quinazoline derivatives as P2X3 inhibitors” (CHIESI FARMACEUTICI S.p.A., priority 2019, dated 2025).
Where a name gives a salt, the structure may show the parent alone.

Biological target: T1, h P2X3 (Homo sapiens, UniProt P56373)
T1 sequence (P56373 1-397): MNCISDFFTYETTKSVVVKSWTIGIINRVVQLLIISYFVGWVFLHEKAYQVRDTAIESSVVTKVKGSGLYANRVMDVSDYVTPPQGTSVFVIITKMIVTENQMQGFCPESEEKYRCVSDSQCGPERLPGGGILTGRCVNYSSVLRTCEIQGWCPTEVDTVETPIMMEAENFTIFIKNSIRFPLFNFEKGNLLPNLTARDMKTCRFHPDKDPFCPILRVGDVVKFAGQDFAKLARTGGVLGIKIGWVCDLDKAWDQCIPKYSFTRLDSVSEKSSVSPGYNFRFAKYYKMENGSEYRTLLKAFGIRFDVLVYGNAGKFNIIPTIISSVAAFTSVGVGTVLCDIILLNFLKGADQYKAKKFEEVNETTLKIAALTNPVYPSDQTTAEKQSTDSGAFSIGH
Test: In vitro electrophysiology assay for P2X3 (automated whole-cell patch clamp, Sophion Qube)
Type: cell-based
Details: Table 6; range of activity; inhibition of P2X3 current, agonist α,β-MeATP (800 nM)
Protocol: Pharmacological Activity of the Compounds of the Invention In Vitro Electrophysiology Assay for P2X3
Cells expressing P2X3 receptors were grown according to standard practice and maintained at 37° C. in a 5% humidified CO2 atmosphere. The cells were seeded into T175 flask 2 days prior to the day of the assay and dissociated from the flasks using TrypLE when grown to confluence of 80-90%. The dissociated cells were resuspended in serum free media at a cell density of 3×10^6 cells/ml and loaded onto the Sophion Qube automated patch-clamp system. The extracellular assay buffer contained 145 mM NaCl, 4 mM KCl, 2 mM CaCl2), 1 mM MgCl2, 10 mM HEPES, and 10 mM glucose at pH 7.4. The intracellular assay solution contained 140 mM CsF, 10 mM NaCl, 10 mM EGTA, 10 mM HEPES at pH 7.2. Agonist stock solutions were prepared in H2O and diluted in bath solution prior to use. All antagonists were prepared as 10 mM stock solutions in DMSO and diluted in bath solution prior to use. All experiments were performed under the whole-cell patch clamp configuration at room temperature with 384 individual cells being voltage clamped at −60 mV simultaneously on the Sophion Qube instrument. Two baseline responses were established with the application of α,β-MeATP (800 nM), with the subsequent agonist applications being washed out using extracellular assay buffer containing 0.5 U/ml apyrase. Following the second agonist application, antagonist was incubated in the absence of α,β-MeATP for 10 minutes. After antagonist preincubation, 800 nM α,β-MeATP and antagonist were co-administered to determine the inhibitory effect of the antagonist. One concentration of an antagonist was assessed against a single cell, with different concentrations of the antagonist applied to other cells on the 384 recording substrate. The control P2X3 current amplitude was taken from the peak current amplitude from the second agonist response prior to preincubation with antagonist. The peak P2X3 current amplitude in the presence of antagonist was used to calculate the inhibitory effect at each concentration of the antagonist according to the following equation: […]
Concentration-response curves were constructed from ten different concentrations with each concentration of antagonist tested on at least two individual cells. The concentration of the antagonist to inhibit P2X3 current by 50% (IC50) was determined by fitting the data with the following equation: […]
Where ‘a’ is minimum response, ‘b’ is maximum response, ‘c’ is IC50 and ‘d’ is Hill slope.
The results for individual compounds are provided below in Table 6 and are expressed as range of activity.
The activity of the comparative examples A and B have been tested in the in vitro Electrophysiology Assay for P2X3 as described above.

| Compound | IC50 [µM] |
| --- | --- |
| COc1cc(-c2ncc(C)s2)cc2c(NCc3nnc(C)s3)ncnc12 [Example 114, 8-methoxy-N-((5-methyl-1,3,4-thiadiazol-2-yl)methyl)-6-(5-methylthiazol-2-yl)quinazolin-4-amine] | < 0.316 |
| C[C@@H](Nc1ncnc2c(-c3cncnc3)cc(-c3ccc(F)cc3)cc12)c1cnc(C(F)(F)F)nc1 [Example 25, (R)-6-(4-fluorophenyl)-8-(pyrimidin-5-yl)-N-(1-(2-(trifluoromethyl)pyrimidin-5-yl)ethyl)quinazolin-4-amine] | < 0.316 |
| COc1cc(-c2ncc(C)cn2)cc2c(NC(C)c3nnc(C)s3)ncnc12 (single isomer, unassigned) [Example 124, 8-Methoxy-6-(5-methylpyrimidin-2-yl)-N-[1-(5-methyl-1,3,4-thiadiazol-2-yl)ethyl]quinazolin-4-amine] | 0.316 to 3.16 |
| COc1cc(-c2ccc(F)cn2)cc2c(NCc3nc(C)no3)ncnc12 [Example 133, 6-(5-fluoropyridin-2-yl)-8-methoxy-N-((3-methyl-1,2,4-oxadiazol-5-yl)methyl)quinazolin-4-amine] | 0.316 to 3.16 |
| COc1cc(-c2ncc(C)cn2)cc2c(NC(C)c3nc(-c4ccncc4)no3)ncnc12 (centres unmarked) [Example 6, 8-methoxy-6-(5-methylpyrimidin-2-yl)-N-(1-(3-(pyridin-4-yl)-1,2,4-oxadiazol-5-yl)ethyl)quinazolin-4-amine] | 0.316 to 3.16 |
| COc1cc(C2=CCOCC2)cc2c(NCc3ccc(C)nn3)ncnc12 [Example 188, 6-(3,6-Dihydro-2H-pyran-4-yl)-8-methoxy-N-((6-methylpyridazin-3-yl)methyl)quinazolin-4-amine] | 3.16 to 31.6 |
| COc1cc(-c2ccc(F)cn2)cc2c(NCc3cc[nH]c(=O)c3)ncnc12 [Example 148, 4-(((6-(5-fluoropyridin-2-yl)-8-methoxyquinazolin-4-yl)amino)methyl)pyridin-2(1H)-one] | 0.316 to 3.16 |
| C[C@@H](Nc1ncnc2c(C3CCOCC3)cc(-c3ccc(F)cc3)cc12)c1cnc(C(F)(F)F)nc1 [Example 26, (R)-6-(4-fluorophenyl)-8-(tetrahydro-2H-pyran-4-yl)-N-(1-(2-(trifluoromethyl)pyrimidin-5-yl)ethyl)quinazolin-4-amine] | 0.316 to 3.16 |
| Cc1cnc(-c2cc(OCC3(O)CCOCC3)c3ncnc(NC(C)c4ccc(C)nn4)c3c2)nc1 (centres unmarked) [Example 34, 4-[[4-[1-(6-methylpyridazin-3-yl)ethylamino]-6-(5-methylpyrimidin-2-yl)quinazolin-8-yl]oxymethyl]tetrahydropyran-4-ol] | 0.316 to 3.16 |
| COc1cc(-c2ccn(C)n2)cc2c(NC(C)c3nnc(C)o3)ncnc12 (centres unmarked) [Example 105] | 0.316 to 3.16 |
| COc1cc(-n2nccc2C)cc2c(N[C@H](C)c3ccc(C)nn3)ncnc12 [Example 102, (R)-8-methoxy-6-(5-methyl-1H-pyrazol-1-yl)-N-(1-(6-methylpyridazin-3-yl)ethyl)quinazolin-4-amine] | 3.16 to 31.6 |
| Cc1cnc(-c2cc(OCC(=O)O)c3ncnc(NCc4ccc(C)nn4)c3c2)nc1 [Example 55, 2-((4-(((6-methylpyridazin-3-yl)methyl)amino)-6-(5-methylpyrimidin-2-yl)quinazolin-8-yl)oxy)acetic acid dihydrochloride] | < 0.316 |
| COc1cc(-c2ncc(C)s2)cc2c(NC(C)c3nnc(C)s3)ncnc12 (single isomer, unassigned) [Example 165, 8-methoxy-N-(1-(5-methyl-1,3,4-thiadiazol-2-yl)ethyl)-6-(5-methylthiazol-2-yl)quinazolin-4-amine] | < 0.316 |
| COc1cc(-c2ccc(F)cn2)cc2c(NCc3noc(C)n3)ncnc12 [Example 132, 6-(5-Fluoropyridin-2-yl)-8-methoxy-N-((5-methyl-1,2,4-oxadiazol-3-yl)methyl)quinazolin-4-amine] | 0.316 to 3.16 |
| COc1cc(-n2ccc(F)n2)cc2c(N[C@H](C)c3ccc(C)nn3)ncnc12 [Example 101, (R)-6-(3-fluoro-1H-pyrazol-1-yl)-8-methoxy-N-(1-(6-methylpyridazin-3-yl)ethyl)quinazolin-4-amine] | 0.316 to 3.16 |
| COc1cc(-c2ccc(F)cc2)cc2c(NCc3ccc(F)cn3)ncnc12 [Example 161, 6-(4-Fluorophenyl)-N-[(5-fluoro-2-pyridyl)methyl]-8-methoxy-quinazolin-4-amine] | 0.316 to 3.16 |
| COc1cc(-c2ncc(C)cn2)cc2c(NC(C)c3nc(C)no3)ncnc12 (single isomer, unassigned) [Example 122, 8-Methoxy-N-[1-(3-methyl-1,2,4-oxadiazol-5-yl)ethyl]-6-(5-methylpyrimidin-2-yl)quinazolin-4-amine] | 3.16 to 31.6 |
| CNS(=O)(=O)c1cc(-c2ccc(F)cc2)cc2c(N[C@H](C)c3nnc(C)s3)ncnc12 [Example 21] | 0.316 to 3.16 |
| Cc1cnc(-c2cc(OC3CCOCC3)c3ncnc(NCc4ccc(C)nn4)c3c2)nc1 [Example 31, N-[(6-methylpyridazin-3-yl)methyl]-6-(5-methylpyrimidin-2-yl)-8-tetrahydropyran-4-yloxy-quinazolin-4-amine] | 0.316 to 3.16 |
| COc1cc(-c2ccc(F)cn2)cc2c(NCc3ccn(C)c(=O)c3)ncnc12 [Example 147, 4-(((6-(5-fluoropyridin-2-yl)-8-methoxyquinazolin-4-yl)amino)methyl)-1-methylpyridin-2(1H)-one] | 0.316 to 3.16 |
| COc1cc(-c2ccc(F)cn2)cc2c(NCc3nnc(C)o3)ncnc12 [Example 134, 6-(5-fluoropyridin-2-yl)-8-methoxy-N-((5-methyl-1,3,4-oxadiazol-2-yl)methyl)quinazolin-4-amine] | 0.316 to 3.16 |
| Cc1ccc(CNc2ncnc3c(OC4COC4)cc(-c4ccc(F)cc4)cc23)nn1 [Example 74, 6-(4-fluorophenyl)-N-((6-methylpyridazin-3-yl)methyl)-8-(oxetan-3-yloxy)quinazolin-4-amine] | 3.16 to 31.6 |
| COc1cc(-c2ccc(F)cn2)cc2c(N[C@H](C)c3ccn(C)n3)ncnc12 [Example 158, 6-(5-fluoro-2-pyridyl)-8-methoxy-N-[(1R)-1-(1-methylpyrazol-3-yl)ethyl]quinazolin-4-amine] | 0.316 to 3.16 |
| Cc1ccc([C@@H](C)Nc2ncnc3c(OC4CCOCC4)cc(-c4ccn(C)n4)cc23)nn1 [Example 32, (R)-6-(1-methyl-1H-pyrazol-3-yl)-N-(1-(6-methylpyridazin-3-yl)ethyl)-8-((tetrahydro-2H-pyran-4-yl)oxy)quinazolin-4-amine] | 0.316 to 3.16 |
| Cc1cnc(-c2cc(OC3CCOCC3)c3ncnc(NC(C)c4nnc(C)s4)c3c2)s1 (centres unmarked) [Example 81, N-[1-(5-methyl-1,3,4-thiadiazol-2-yl)ethyl]-6-(5-methylthiazol-2-yl)-8-tetrahydropyran-4-yloxy-quinazolin-4-amine] | 0.316 to 3.16 |
| COc1cc(-c2ccc(F)cn2)cc2c(NCc3cc(C)no3)ncnc12 [Example 135, 6-(5-fluoropyridin-2-yl)-8-methoxy-N-((3-methylisoxazol-5-yl)methyl)quinazolin-4-amine] | 0.316 to 3.16 |
| COc1cc(-c2ncc(C)cn2)cc2c(NC(C)c3ccc(C(F)(F)F)nn3)ncnc12 (single isomer, unassigned) [Example 120, 8-methoxy-6-(5-methylpyrimidin-2-yl)-N-[1-[6-(trifluoromethyl)pyridazin-3-yl]ethyl]quinazolin-4-amine] | < 0.316 |
| C[C@@H](Nc1ncnc2c(OC3CC4CC3CN4)cc(-c3ccc(F)cc3)cc12)c1cnc(C(F)(F)F)nc1 (stereo partly drawn) [Example 41, 8-((2-azabicyclo[2.2.1]heptan-5-yl)oxy)-6-(4-fluorophenyl)-N-((R)-1-(2-(trifluoromethyl)pyrimidin-5-yl)ethyl)quinazolin-4-amine] | < 0.316 |
| C[C@@H](Nc1ncnc2c(OC3CCNC4(CCC4)C3)cc(-c3ccc(F)cc3)cc12)c1cnc(C(F)(F)F)nc1 (stereo partly drawn) [Example 39, 8-(5-azaspiro[3.5]nonan-8-yloxy)-6-(4-fluorophenyl)-N-[(1R)-1-[2-(trifluoromethyl)pyrimidin-5-yl]ethyl]quinazolin-4-amine] | < 0.316 |
